Measurements as given in US12240860B2, “Heterobicyclic carboxylic acids and salts thereof” (SHENZHEN IONOVA LIFE SCIENCE CO., LTD., priority 2018, dated 2025).

Experiment: DVS (Dynamic Vapor Sorption) moisture sorption/desorption
Format: physicochemical
Conditions: 25° C.
Procedure: DVS (Dynamic Vapor Sorption)
Around 20 mg of samples were used to test its moisture sorption/desorption profiles at 25° C. under 0%˜95%˜0% relative humidity (RH) cycle with the following parameters:
Equilibrium: dm/dt: 0.01%/min.
RH (%) measurement step scope: 0%95%0%; RH (%) measurement step: 5%

- moisture at 80% RH (DVS): 3.175%
- Hygroscopicity Classification (DVS) (80% RH): hygroscopic
SMILES: Cc1sc2ccn(Cc3ccc(C(F)(F)F)cc3)c2c1C(=O)NC1(c2ccc(C(=O)O)cc2)CC1 [C003 free acid, 4-(1-{[2-Methyl-4-(4-trifluoromethyl-benzyl)-4H-thieno[3,2-b]pyrrole-3-carbonyl]-amino}-cyclopropyl)-benzoic acid]
